Measurements: paper PMC11528066, “Noninvasive Monitoring of Programmed Death-Ligand 2 Expression with Positron Emission Tomography using ^68Ga-labeled Peptide Antagonist in Preclinical and Exploratory Human Studies” (Research, 2024)
Peptide text beside a SMILES is read from it. * marks the point of attachment. NOTA = O=C(O)CN1CCN(CC(=O)O)CCN(CC(=O)*)CC1; AEEEA = NCCOCCOCCOCC(=O)O

Experiments:
[1] = tested on: A549-PD-L2 xenograft tumor models; assay: Biodistribution (γ-counter); type: in vivo, BALB/C nude mice; settings: mean ± SD, n = 3
Description: Micro-PET imaging was conducted using an Inveon PET scanner (Siemens, Germany). Dynamic PET examine were acquired over the first 60 min following the simultaneous injection of 7.4 to 9.25 MBq (200 to 250 μCi) of [^68Ga]Ga-HN11-1 and [^68Ga]Ga-HN11-2. After reconstructing the images and delineating the regions of interest (ROIs), time-radioactivity curves were plotted to obtain the Tumor/Muscle (T/M) ratios. %ID/g represents the percentage of the injected dose of the radiotracer that accumulates in a specific tissue per gram of tissue weight. For the biodistribution study, the xenograft models received an intravenous injection of 3.7 to 5.5 MBq (100 to 150 μCi) of [^68Ga]Ga-HN11-1. After the designated period (10, 30, 60, and 90 min), the mice were euthanized, and important tissues and organs were dissected and collected. The samples were counted using the γ-counter for determining the %ID/g, presented as mean ± standard deviation (SD).
A549 cell lines were provided by the China Center for Type Culture Collection (CCTCC) and cultured in RPMI-1640 medium supplemented with 10 % fetal bovine serum and 100 U/mL penicillin-streptomycin. The lentivirus system was implemented to introduce PD-L2 (PDCD1LG2) over-expressed cDNA into the A549 cells. The viral vectors were produced in 293T cells and co-transfected with the psAX2, pMD2G and PD-L2 plasmids. A549 cells transduced with the vectors were selectively grown in 1.6 μg/mL puromycin. Transfection efficiency was identified by WB and real-time quantitative PCR. All the cells were cultured in an incubator at 37° C with 5 % CO2 atmosphere. A549 and A549-PD-L2 cells (5 × 10^6, 200 μL)were subcutaneously implanted into the right shoulder of BALB/C nude mice (male, 4-6 weeks), respectively. When the tumors reached to 5 - 8 mm in diameter, the mice were subjected to in vivo and ex vivo studies. All the mice were purchased from the Laboratory Animal Center of Central South University.

PD-L2 = biological target: T1, PD-L2 (Homo sapiens, UniProt Q9BQ51); assay: [^68Ga]Ga-HN11-1 PET/CT imaging in cancer patients; type: in vivo
T1 construct: from tissue; host or cells: tumour lesions (NSCLC, recurrent or metastatic HNSCC) in living patients
T1 sequence (Q9BQ51 20-273): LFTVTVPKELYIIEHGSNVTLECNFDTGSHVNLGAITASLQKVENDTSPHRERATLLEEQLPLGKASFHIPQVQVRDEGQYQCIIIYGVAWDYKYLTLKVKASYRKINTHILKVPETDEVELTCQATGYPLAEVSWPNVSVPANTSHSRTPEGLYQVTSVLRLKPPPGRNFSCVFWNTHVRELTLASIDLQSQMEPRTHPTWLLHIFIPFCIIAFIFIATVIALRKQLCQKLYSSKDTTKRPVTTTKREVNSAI
Description: (§1) The program content was explained to all healthy volunteers and cancer patients, and written informed consent was obtained. Whole-body dynamic imaging was conducted for 60 min using a PET/CT 690 Elite scanner (GE Discovery) immediately after intravenous injection of [^68Ga]Ga-HN11-1 (3.1 to 4.9 MBq/kg). A static body scan was performed 15 to 45 min after injection. All cancer patients underwent [^18F]F-FDG and [^68Ga]Ga-HN11-1 PET/CT imaging within 5 d. Two nuclear medicine physicians reconstructed and reviewed the images on GE aw 4.6 workstations and reached a consensus. They delineated the ROIs and measured the values of maximum standard uptake and average standard uptake (SUVmax and SUVmean). The biological distribution of [^68Ga]Ga-HN11-1 in healthy volunteers was determined by SUVmax and SUVmean. The OLINDA/EXM software (version 1.0, Hermes Medical Solutions AB) was used to estimate the human radiation dose based on the SUVmean of each organ.

[2] = Safety after intravenous injection in volunteers and patients; type: in vivo, human; settings: 3 healthy volunteers and 6 patients, intravenous injection 3.1 to 4.9 MBq/kg
Description: as §1

Blood uptake ([1]; 10 min p.i.): 2.83 ± 0.21 %ID/g
Heart uptake ([1]; 10 min p.i.): 1.41 ± 0.10 %ID/g
Liver uptake ([1]; 10 min p.i.): 2.90 ± 0.47 %ID/g
Lung uptake ([1]; 10 min p.i.): 1.56 ± 0.06 %ID/g
Spleen uptake ([1]; 10 min p.i.): 1.91 ± 0.14 %ID/g
Stomach uptake ([1]; 10 min p.i.): 1.27 ± 0.14 %ID/g
Blood uptake ([1]; 30 min p.i.): 1.34 ± 0.16 %ID/g
Heart uptake ([1]; 30 min p.i.): 0.85 ± 0.10 %ID/g
Kidney uptake ([1]; 30 min p.i.): 66.15 ± 0.73 %ID/g
Liver uptake ([1]; 30 min p.i.): 1.44 ± 0.31 %ID/g
Lung uptake ([1]; 30 min p.i.): 0.96 ± 0.09 %ID/g
Spleen uptake ([1]; 30 min p.i.): 0.86 ± 0.16 %ID/g
Stomach uptake ([1]; 30 min p.i.): 0.48 ± 0.04 %ID/g
Blood uptake ([1]; 60 min HN11-1 Block): 0.33 ± 0.02 %ID/g
Heart uptake ([1]; 60 min HN11-1 Block): 0.18 ± 0.02 %ID/g
Kidney uptake ([1]; 60 min HN11-1 Block): 76.77 ± 7.10 %ID/g
Liver uptake ([1]; 60 min HN11-1 Block): 1.20 ± 0.32 %ID/g
Lung uptake ([1]; 60 min HN11-1 Block): 0.92 ± 0.04 %ID/g
Spleen uptake ([1]; 60 min HN11-1 Block): 0.96 ± 0.17 %ID/g
Stomach uptake ([1]; 60 min HN11-1 Block): 0.26 ± 0.05 %ID/g
Blood uptake ([1]; 60 min p.i.): 0.34 ± 0.01 %ID/g
Heart uptake ([1]; 60 min p.i.): 0.18 ± 0.02 %ID/g
Kidney uptake ([1]; 60 min p.i.): 74.56 ± 3.78 %ID/g
Liver uptake ([1]; 60 min p.i.): 0.91 ± 0.14 %ID/g
Lung uptake ([1]; 60 min p.i.): 0.74 ± 0.04 %ID/g
Spleen uptake ([1]; 60 min p.i.): 0.51 ± 0.17 %ID/g
Stomach uptake ([1]; 60 min p.i.): 0.19 ± 0.03 %ID/g
Blood uptake ([1]; 90 min p.i.): 0.16 ± 0.03 %ID/g
Heart uptake ([1]; 90 min p.i.): 0.13 ± 0.01 %ID/g
Kidney uptake ([1]; 90 min p.i.): 87.01 ± 3.40 %ID/g
Liver uptake ([1]; 90 min p.i.): 0.28 ± 0.17 %ID/g
Lung uptake ([1]; 90 min p.i.): 0.40 ± 0.11 %ID/g
Spleen uptake ([1]; 90 min p.i.): 0.21 ± 0.04 %ID/g
Stomach uptake ([1]; 90 min p.i.): 0.20 ± 0.02 %ID/g
median SUVmax (PD-L2; all patients, n = 6): 3.25
HN11-1 SUVmax (PD-L2; patient 1, NSCLC, lung, PD-L2 expression 80 %): 4.1
HN11-1 SUVmax (PD-L2; patient 2, NSCLC, lung, PD-L2 expression 15 %): 2.1
HN11-1 SUVmax (PD-L2; patient 3, rHNSCC, buccal): 4.0
HN11-1 SUVmax (PD-L2; patient 4, rHNSCC, buccal): 3.0
SMILES: CC[C@H](C)[C@H](NC(=O)[C@H](CCCNC(=N)N)NC(=O)CNC(=O)[C@H](CCC(=O)O)NC(=O)[C@H](CC(N)=O)NC(=O)[C@H](Cc1ccc(O)cc1)NC(=O)[C@H](CCCNC(=N)N)NC(=O)[C@H](Cc1ccc(O)cc1)NC(=O)[C@H](Cc1c[nH]cn1)NC(=O)COCCOCCOCCNC(=O)CN1CCN(CC(=O)O)CCN(CC(=O)O)CC1)C(=O)N[C@@H](CCCNC(=N)N)C(=O)N[C@@H](CC(N)=O)C(=O)O [[^68Ga]Ga-HN11-1, metal not drawn] ({NOTA-AEEEA}-HYRYNEGRIRN-OH)
tolerability / adverse pharmacological reactions [2]: well tolerated and without adverse pharmacological reactions observed
